Paper PMC13089524, “Development of SYK NanoBRET cellular target engagement assays for gain–of–function variants” (Frontiers in chemical biology, 2024)
“Also recorded” adds a separate entry of the source.

Assays:
SYK(S550Y)-NL [1] = target: T1, SYK(S550Y)-NL (Homo sapiens, UniProt P43405, S550Y); assay: NanoBRET cellular target engagement assay in intact live HEK293 cells, SYK(S550Y)-NL; format: cell-based; conditions: for IC50: tracer titration
T1 construct: host or cells: HEK293
Description: (§1) NL orientations used in the respective assays are indicated. […] Plates were incubated for 25 min at room temperature if digitonin was added or for 2 h at 37°C in 5% CO2 for the intact cell NanoBRET assay. […] For intact live cells in a 96-well plate, the 3X stock solution was prepared with 30 μL of NanoBRET NanoGlo substrate, 10 μL of extracellular NanoLuc inhibitor, and 4,960 μL of Opti-MEM without phenol red. For digitonin permeabilized live cells in a 96-well plate, the 3X stock solution was prepared with 30 μL of NanoBRET NanoGlo substrate and 4,970 μL of Opti-MEM without phenol red. Raw milliBRET units (mBU) were read on a GloMax Discover system (Promega) with a donor emission wavelength of 450 nm and an acceptor emission wavelength of 600 nm. mBU were calculated by dividing the acceptor emission values (600 nm) by the donor emission values (450 nm). For NanoBRET studies with SYK, background corrected mBU were calculated by subtracting the no tracer wells from the tracer-containing wells and multiplying by 1,000.
(§2) MRL-SYKi was used to compete away the NanoBRET signal produced with tracer 8. […] Tracer 8 was prepared in DMSO and DMEM without phenol red in 11-point dose-response format with 3 μM as the top concentration, with a final assay plate concentration of 1% DMSO. 10X stock solutions of MRL-SYKi were prepared from 10 mM DMSO stock solution with room temperature Opti-MEM without phenol red, for final assay plate concentrations of 10 μM. 10 μL of 8 (10X) was added to each well, with the exception of the no tracer control wells, and 10 μL of 10X solutions of MRL-SYKi was added to wells for tracer competition. One biological replicate was plotted in GraphPad Prism with [inhibitor] vs response (three parameters).
(§3) MRL-SYKi was tested in 11-point dose–response format with a top concentration of 10 μM. […] The final assay plate concentrations included 1% DMSO. 5 μL of 8 (20X) was added to each well, except the no tracer control wells, and 10 μL of 10X threefold diluted solutions of MRL-SYKi was added to wells. Two biological replicates were plotted in GraphPad Prism with log[inhibitor] vs response (three parameters) with the error bars indicating standard deviation.
(§4) Compounds were tested in 11-point dose–response format with a top concentration of 10 μM. Data are reported as IC50 ± standard error mean (SEM). One biological replicate was plotted in GraphPad Prism with log[inhibitor] vs response (three parameters), the three IC50’s were averaged and the SEM was calculated.

SYK(WT)-NL = target: T2, SYK(WT)-NL (Homo sapiens, UniProt P43405); assay: NanoBRET assay in digitonin permeabilized HEK293 cells, SYK(WT)-NL; format: cell-based; conditions: fixed concentration of tracer 8, average ± SEM, read-out: IC50, SYK(variant)-NL WT
T2 construct: SYK tracers enable BRET with full-length SYK(WT) after digitonin permeabilization; host or cells: HEK293
Description: We performed NanoBRET tracer optimization to determine if the SYK tracers could effectively generate a BRET signal. […] To enable the NanoBRET assay using tracer 8 with cells permeabilized by digitonin, a tracer dose–response study was performed for each SYK(GoF) variant and SYK(WT) (Figure 3A), followed by tracer titration experiments (Figure 3B; Supplementary Figure S3). […] Initially, we determined the EC50 of tracer 8 for each SYK(GoF) variant and SYK(WT). […] Plates were incubated for 25 min at room temperature if digitonin was added or for 2 h at 37°C in 5% CO2 for the intact cell NanoBRET assay. […] For intact live cells in a 96-well plate, the 3X stock solution was prepared with 30 μL of NanoBRET NanoGlo substrate, 10 μL of extracellular NanoLuc inhibitor, and 4,960 μL of Opti-MEM without phenol red. For digitonin permeabilized live cells in a 96-well plate, the 3X stock solution was prepared with 30 μL of NanoBRET NanoGlo substrate and 4,970 μL of Opti-MEM without phenol red. Raw milliBRET units (mBU) were read on a GloMax Discover system (Promega) with a donor emission wavelength of 450 nm and an acceptor emission wavelength of 600 nm. mBU were calculated by dividing the acceptor emission values (600 nm) by the donor emission values (450 nm). For NanoBRET studies with SYK, background corrected mBU were calculated by subtracting the no tracer wells from the tracer-containing wells and multiplying by 1,000.
HEK293 cells were transfected with constructs of SYK(WT) or SYK(KD) tagged with NL on the C- or N-terminus and SYK GoF variants tagged with NL on the C-terminus. Tracer 8 (20X) was prepared from a 400 μM stock solution in DMSO with tracer dilution buffer (Promega, #N291B) and 20% DMSO, with a final assay plate concentration of 1% DMSO. 5 μL of 8 (20X) was added to each well, with exception of the no tracer control wells, with final plate concentrations of 0.5, 1, and 2 μM. 10 μL of digitonin (Fisher, 10X, 500 μg/mL) was added to specific wells to permeabilize the cells. The 10X digitonin stock was prepared by diluting a 40X DMSO solution of digitonin with room temperature Opti-MEM without phenol red, for a final assay plate concentration of 1% DMSO. SYK inhibitor stock solutions of MRL-SYKi (10X) were prepared from 10 mM DMSO stock solutions with room temperature Opti-MEM without phenol red, for final assay plate concentrations of 10 μM. Plates were incubated for 25 min at room temperature if digitonin was added or for 2 h at 37°C in 5% CO2 for the intact cell NanoBRET assay. Two technical replicates were plotted in a bar chart with the standard deviation represented as error bars on Graphpad Prism.

SYK(P342T)-NL [2] = target: T3, SYK(P342T)-NL (Homo sapiens, UniProt P43405, P342T); assay: NanoBRET cellular target engagement assay in intact live HEK293 cells, SYK(P342T)-NL; format: cell-based
T3 construct: host or cells: HEK293
Description: as §1, §2, §3, §4

[3] = tested on: SRC, NTRK1, NTRK3, FGR, FYN, FER, and JAK2; conditions: ref Sgc et al., 2024; cited from earlier work
SYK(A353T)-NL = target: T4, SYK(A353T)-NL (Homo sapiens, UniProt P43405, A353T); assay: NanoBRET assay in digitonin permeabilized HEK293 cells, SYK(A353T)-NL; format: cell-based; conditions: fixed concentration of tracer 8, average ± SEM, read-out: IC50, SYK(variant)-NL A353T
T4 construct: host or cells: HEK293
Description: (§5) We performed NanoBRET tracer optimization to determine if the SYK tracers could effectively generate a BRET signal. […] To enable the NanoBRET assay using tracer 8 with cells permeabilized by digitonin, a tracer dose–response study was performed for each SYK(GoF) variant and SYK(WT) (Figure 3A), followed by tracer titration experiments (Figure 3B; Supplementary Figure S3). […] Initially, we determined the EC50 of tracer 8 for each SYK(GoF) variant and SYK(WT). […] Plates were incubated for 25 min at room temperature if digitonin was added or for 2 h at 37°C in 5% CO2 for the intact cell NanoBRET assay. […] For intact live cells in a 96-well plate, the 3X stock solution was prepared with 30 μL of NanoBRET NanoGlo substrate, 10 μL of extracellular NanoLuc inhibitor, and 4,960 μL of Opti-MEM without phenol red. […] Raw milliBRET units (mBU) were read on a GloMax Discover system (Promega) with a donor emission wavelength of 450 nm and an acceptor emission wavelength of 600 nm. mBU were calculated by dividing the acceptor emission values (600 nm) by the donor emission values (450 nm). For NanoBRET studies with SYK, background corrected mBU were calculated by subtracting the no tracer wells from the tracer-containing wells and multiplying by 1,000. […]

SYK(S550Y)-NL [4] = target: T1, SYK(S550Y)-NL; assay: NanoBRET assay in digitonin permeabilized HEK293 cells, SYK(S550Y)-NL; format: cell-based; conditions: fixed concentration of tracer 8, average ± SEM, read-out: IC50, SYK(variant)-NL S550Y
Description: as §5

SYK(S550F)-NL [5] = target: T5, SYK(S550F)-NL (Homo sapiens, UniProt P43405, S550F); assay: NanoBRET assay in digitonin permeabilized HEK293 cells, SYK(S550F)-NL; format: cell-based; conditions: fixed concentration of tracer 8, average ± SEM, read-out: IC50, SYK(variant)-NL S550F
T5 construct: host or cells: HEK293
Description: as §5

SYK(S550F) = target: T6, SYK(S550F) (Homo sapiens, UniProt P43405, S550F); assay: PhosphoSens SOX peptide kinase activity assay, SYK(S550F); format: biochemical; conditions: purified protein, 1 mM ATP
T6 construct: The full-length SYK GoF variants SYK(S550F) and SYK(P342T) along with SYK(WT) were purified from insect cells (Sf9); 6His (N, cleaved yes); GST (N, cleaved yes); made in house; host or cells: Sf9 insect cells (baculovirus, pFastbac1)

SYK(P342T) = target: T7, SYK(P342T) (Homo sapiens, UniProt P43405, P342T); assay: PhosphoSens SOX peptide kinase activity assay, SYK(P342T); format: biochemical; conditions: purified protein, 1 mM ATP
T7 construct: The full-length SYK GoF variants SYK(S550F) and SYK(P342T) along with SYK(WT) were purified from insect cells (Sf9); 6His (N, cleaved yes); GST (N, cleaved yes); made in house; host or cells: Sf9 insect cells (baculovirus, pFastbac1)

SYK = target: T8, SYK (Homo sapiens, UniProt P43405); assay: Eurofins DiscoverX SYK enzymatic radiometric assay; format: biochemical; conditions: Km value for ATP, 9-pt dose-response
T8 construct: purchased Eurofins DiscoverX (contract assay service)
Description: Eurofins kinase enzymatic radiometric assays were executed at the Km value for ATP in dose–response (9-pt curve) format for SYK, included in Table 1 as enzymatic IC50 values.

[6] = ref Altman et al., 2011; cited from earlier work
SYK(S550F)-NL [7] = target: T5, SYK(S550F)-NL; assay: NanoBRET cellular target engagement assay in intact live HEK293 cells, SYK(S550F)-NL; format: cell-based
Description: as §1, §2, §3, §4

SYK(M450I)-NL = target: T9, SYK(M450I)-NL (Homo sapiens, UniProt P43405, M450I); assay: NanoBRET assay in digitonin permeabilized HEK293 cells, SYK(M450I)-NL; format: cell-based; conditions: fixed concentration of tracer 8, average ± SEM, read-out: IC50, SYK(variant)-NL M450I
T9 construct: host or cells: HEK293
Description: as §5

[8] = tested on: kinases of the KINOMEscan panel; conditions: ref Sgc et al., 2024; cited from earlier work
SYK(P342T)-NL [9] = target: T3, SYK(P342T)-NL; assay: NanoBRET assay in digitonin permeabilized HEK293 cells, SYK(P342T)-NL; format: cell-based; conditions: fixed concentration of tracer 8, average ± SEM, read-out: IC50, SYK(variant)-NL P342T
Description: as §5

[10] = tested on: pSYK(Y525/526) in SW480 cells stably expressing SYK(S550Y); assay: SYK phosphorylation western blot in SW480 cells stably expressing SYK(S550Y); format: cell-based
Description: SW480 cells stably expressing S550Y variant were maintained as previously described ([Wang et al., 2021]). For SYK S550Y inhibition, cells were seeded in 12-well plate, at 10^6 cells/well. The next day, medium was replaced and MRL-SYK inhibitor was added at 10 μM and 100 nM for 20 h. Protein lysates were prepared and analyzed on Western blot as previously described ([Wang et al., 2021]).

[11] = tested on: GPCR scan and panel of 113 enzymes and receptors; conditions: at 10 μM; ref Sgc et al., 2024; cited from earlier work

## Cc1cc(Nc2nccc(C)n2)cc(-c2cnc([C@@]3(O)CC[C@H](C(=O)O)C(C)(C)C3)s2)c1 [MRL-SYKi]
SYK(S550Y)-NL [1]; linearized Cheng-Prusoff analysis, y-intercept, tracer 8, single experiment, read-out: KD, app SYK(S550Y)
  Kd: 27 nM
SYK(S550Y)-NL [1]; [Tracer] 7.8 nM, read-out: IC50, SYK(S550Y)-NL + 8 + MRL-SYKi
  IC50: 27 nM
SYK(S550Y)-NL [1]; [Tracer] 15.6 nM, read-out: IC50, SYK(S550Y)-NL + 8 + MRL-SYKi
  IC50: 27 nM
SYK(S550Y)-NL [1]; [Tracer] 31.2 nM, read-out: IC50, SYK(S550Y)-NL + 8 + MRL-SYKi
  IC50: 32 nM
SYK(S550Y)-NL [1]; [Tracer] 62.5 nM, read-out: IC50, SYK(S550Y)-NL + 8 + MRL-SYKi
  IC50: 42 nM
SYK(S550Y)-NL [1]; [Tracer] 125 nM, read-out: IC50, SYK(S550Y)-NL + 7 + MRL-SYKi
  IC50: 41 nM
SYK(S550Y)-NL [1]; [Tracer] 125 nM, read-out: IC50, SYK(S550Y)-NL + 8 + MRL-SYKi
  IC50: 74 nM
SYK(S550Y)-NL [1]; [Tracer] 250 nM, read-out: IC50, SYK(S550Y)-NL + 7 + MRL-SYKi
  IC50: 54 nM
SYK(S550Y)-NL [1]; [Tracer] 500 nM, read-out: IC50, SYK(S550Y)-NL + 7 + MRL-SYKi
  IC50: 98 nM
SYK(S550Y)-NL [1]; [Tracer] 1000 nM, read-out: IC50, SYK(S550Y)-NL + 7 + MRL-SYKi
  IC50: 220 nM
SYK(WT)-NL
  IC50: 10 nM
SYK(P342T)-NL [2]; intact HEK293 cells, 125 nM tracer 8, average of triplicate ± SEM, read-out: SYK(P342T) IC50
  IC50: 410 ± 95 nM
SYK(P342T)-NL [2]; linearized Cheng-Prusoff analysis, y-intercept, tracer 8, single experiment, read-out: KD, app SYK(P342T)
  Kd: 179 nM
SYK(P342T)-NL [2]; tracer titration, [Tracer] 15.6 nM, read-out: IC50, SYK(P342T)-NL + 8 + MRL-SYKi
  IC50: 134 nM
SYK(P342T)-NL [2]; tracer titration, [Tracer] 31.2 nM, read-out: IC50, SYK(P342T)-NL + 8 + MRL-SYKi
  IC50: 194 nM
SYK(P342T)-NL [2]; tracer titration, [Tracer] 62.5 nM, read-out: IC50, SYK(P342T)-NL + 8 + MRL-SYKi
  IC50: 371 nM
SYK(P342T)-NL [2]; tracer titration, [Tracer] 125 nM, read-out: IC50, SYK(P342T)-NL + 8 + MRL-SYKi
  IC50: 365 nM
SYK(P342T)-NL [2]; tracer titration, [Tracer] 250 nM, read-out: IC50, SYK(P342T)-NL + 8 + MRL-SYKi
  IC50: 498 nM
[3]
  off-target kinases less potent than SYK: ≥ 111 fold
SYK(A353T)-NL
  IC50: 10 ± 5 nM
SYK(S550Y)-NL [4]
  IC50: 2.1 ± 1 nM
SYK(S550F)-NL [5]
  IC50: 14 ± 5 nM
SYK(S550F)
  IC50: 63 nM
SYK(P342T)
  IC50: 95 nM
SYK
  IC50: 30 nM
[6]
  cellular activity: < 100 nM
SYK(S550F)-NL [7]; intact HEK293 cells, 125 nM tracer 8, average of triplicate ± SEM, read-out: SYK(S550F) IC50
  IC50: 250 ± 48 nM
SYK(S550F)-NL [7]; linearized Cheng-Prusoff analysis, y-intercept, tracer 8, single experiment, read-out: KD, app SYK(S550F)
  Kd: 46 nM
SYK(S550F)-NL [7]; tracer titration, [Tracer] 7.8 nM, read-out: IC50, SYK(S550F)-NL + 8 + MRL-SYKi
  IC50: 29 nM
SYK(S550F)-NL [7]; tracer titration, [Tracer] 15.6 nM, read-out: IC50, SYK(S550F)-NL + 8 + MRL-SYKi
  IC50: 44 nM
SYK(S550F)-NL [7]; tracer titration, [Tracer] 31.2 nM, read-out: IC50, SYK(S550F)-NL + 8 + MRL-SYKi
  IC50: 77 nM
SYK(S550F)-NL [7]; tracer titration, [Tracer] 62.5 nM, read-out: IC50, SYK(S550F)-NL + 8 + MRL-SYKi
  IC50: 98 nM
SYK(S550F)-NL [7]; tracer titration, [Tracer] 125 nM, read-out: IC50, SYK(S550F)-NL + 8 + MRL-SYKi
  IC50: 157 nM
SYK(S550F)-NL [7]; tracer titration, [Tracer] 250 nM, read-out: IC50, SYK(S550F)-NL + 8 + MRL-SYKi
  IC50: 190 nM
SYK(M450I)-NL
  IC50: 29 ± 6 nM
[8]
  selectivity versus the protein kinase family in the KINOMEscan panel: greater than 30 fold
SYK(P342T)-NL [9]
  IC50: 4.6 ± 2.6 nM
[10]; 100 nM for 20 h
  pSYK(Y525/526) levels via Western blot compared to untreated cells: decrease in pSYK(Y525/526) levels; also recorded: decreased pSYK(Y525/526) levels
[10]; 10 μM for 20 h
  pSYK(Y525/526) levels via Western blot compared to untreated cells: decrease in pSYK(Y525/526) levels
[11]
  off-target inhibition: no off-target inhibition
